Test systems include SK-MEL-2; SF-295; MOLT-4; RPMI-8226; IGROV-1; SR; SF-268; SF-539; SNB-75; Malme-3M; TK-10; DU-145; HCT-15; M14; MDA-MB-435; NCI-H460; HOP-92; OVCAR-4; OVCAR-3; HCC 2998.
Experiment in all cases: DTP human tumour cell line panel, 48 h

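Cultured in 96-well plates, cells were exposed to test compound for 48 hours across five concentrations. GI50 marks 50% less growth.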 Active and inactive are the calls of the source. Rule as the data show it: active = GI50 up to about 1.1 µM and inactive = higher. A value given as a limit tells only on which side of the number the result lay.

Turning to `NS(=O)(=O)c1ccc(/N=N/c2ncccc2O)cc1`, the GI50 (as a rule, the concentration at which growth is held to half of that of the control) is > 100 µM (inactive) with SK-MEL-2; > 100 µM (inactive) in the experiment with SF-295; 22.6 µM (inactive) with MOLT-4; > 100 µM (inactive) with RPMI-8226; > 100 µM (inactive) with IGROV-1; 23.1 µM (inactive) in the experiment on SR. The GI50 with SF-268 is > 100 µM (inactive); in the experiment with SF-539 it was 55.6 µM (inactive); with SNB-75, > 100 µM (inactive); in the experiment on Malme-3M, > 100 µM (inactive); with TK-10, > 100 µM (inactive); with DU-145, 38.5 µM (inactive). Moreover, the GI50 in the experiment on HCT-15 is more than 100 µM; in the experiment on M14, > 100 µM (inactive); in the experiment with MDA-MB-435 it was > 100 µM (inactive); with NCI-H460, 69.3 µM (inactive); with HOP-92, > 100 µM (inactive); in the experiment on OVCAR-4, 57.7 µM (inactive). Also, in the experiment on OVCAR-3, the GI50 was 33.7 µM (inactive).

Turning to `C=CCNS(=O)(=O)c1ncnc2[nH]cnc12`, the GI50 with SK-MEL-2 was > 100 µM (inactive); with SF-295 it was > 100 µM (inactive); in the experiment on MOLT-4 it was 14.2 µM (inactive); in the experiment with RPMI-8226, 11.8 µM (inactive); in the experiment on IGROV-1 it was > 100 µM (inactive); with SR, 69.8 µM (inactive). For the same molecule, the GI50 is > 100 µM (inactive) in the experiment with SNB-75; > 100 µM (inactive) with Malme-3M; > 100 µM (inactive) with TK-10; > 100 µM (inactive) in the experiment with DU-145; more than 100 µM in the experiment with HCT-15; > 100 µM (inactive) with M14. The GI50 was > 100 µM (inactive) in the experiment on MDA-MB-435, 5.75 µM (inactive) in the experiment with HOP-92, > 100 µM (inactive) in the experiment with OVCAR-4 and > 100 µM (inactive) in the experiment on OVCAR-3.

For `Cc1ccc(S[C@@H](C)[C@@](O)(CF)CN(Cc2ccccc2)C(=O)C(F)(F)F)cc1`, the GI50 in the experiment with SK-MEL-2 was 18.5 µM (inactive); in the experiment on IGROV-1, > 100 µM (inactive); in the experiment with SF-268, 33.2 µM (inactive); in the experiment on Malme-3M, 20.9 µM (inactive); in the experiment with TK-10, 35.2 µM (inactive); with DU-145 it was 26.9 µM (inactive). Besides, the GI50 with HCT-15 is 17.1 µM; in the experiment with M14, 17.1 µM (inactive); with MDA-MB-435, 19.6 µM (inactive); in the experiment on NCI-H460, 15.5 µM (inactive); in the experiment on HOP-92 it was 4.65 µM (inactive); in the experiment with HCC 2998 it was 18.3 µM (inactive). The GI50 in the experiment on OVCAR-4 was 14.9 µM (inactive); with OVCAR-3, 13.7 µM (inactive).

As for `C=C(C)C1CCC2=CC(CC3(C)OC3C3=CC(C(=O)OC)=C(C1)O3)OC2=O` (stereo unspecified), the GI50 was > 100 µM (inactive) in the experiment on SK-MEL-2; > 100 µM (inactive) in the experiment on SF-295; 36.9 µM (inactive) in the experiment with MOLT-4; > 100 µM (inactive) with IGROV-1; 83.2 µM (inactive) in the experiment on SR; > 100 µM (inactive) with SF-268. The GI50 is 73.3 µM (inactive) in the experiment with SF-539; 56.2 µM (inactive) in the experiment with SNB-75; > 100 µM (inactive) with Malme-3M; > 100 µM (inactive) in the experiment with TK-10; > 100 µM (inactive) in the experiment on DU-145; more than 100 µM with HCT-15. Moreover, the GI50 was > 100 µM (inactive) in the experiment with M14; > 100 µM (inactive) in the experiment on MDA-MB-435; > 100 µM (inactive) in the experiment on NCI-H460; 88.3 µM (inactive) in the experiment on HOP-92; > 100 µM (inactive) with OVCAR-3.

With `COc1cc(C2OC(N)=C(C#N)C3=C2C(C)CCC3)cc(OC)c1OC` (stereo unspecified), the GI50 was 71.8 µM (inactive) in the experiment with SK-MEL-2; 28.9 µM (inactive) in the experiment with SF-295; 34.2 µM (inactive) in the experiment on MOLT-4; > 100 µM (inactive) with RPMI-8226; 47.1 µM (inactive) in the experiment with IGROV-1; 0.136 µM (active) with SR. For the same molecule, the GI50 was > 100 µM (inactive) in the experiment with SF-268; 11.9 µM (inactive) in the experiment on SF-539; 10.9 µM (inactive) with SNB-75; 39.9 µM (inactive) in the experiment with Malme-3M; > 100 µM (inactive) with TK-10; 95.9 µM (inactive) with DU-145. In addition, the GI50 in the experiment on HCT-15 was more than 100 µM; in the experiment on M14 it was > 100 µM (inactive); with MDA-MB-435 it was > 100 µM (inactive); with OVCAR-3, > 100 µM (inactive).

Turning to `COc1ccc2c(c1)SC1=Nc3sc4cc(OC)ccc4[n+]3CN12`, the GI50 with SK-MEL-2 is 15.8 µM (inactive); with SF-295 it was 31.3 µM (inactive); in the experiment with MOLT-4, 4.62 µM (inactive); in the experiment on RPMI-8226 it was 20.7 µM (inactive); in the experiment on IGROV-1 it was 24.9 µM (inactive); in the experiment on SR it was 5.83 µM (inactive). Also, the GI50 with SF-268 is 2.89 µM (inactive); in the experiment with SF-539, 42.2 µM (inactive); in the experiment with Malme-3M, 14.6 µM (inactive); in the experiment with TK-10 it was 51.4 µM (inactive); in the experiment on DU-145 it was 29 µM (inactive); in the experiment with HCT-15, 86.1 µM. In addition, the GI50 was 33.1 µM (inactive) with M14; 26.9 µM (inactive) in the experiment on MDA-MB-435; 17.2 µM (inactive) in the experiment on NCI-H460; 2.23 µM (inactive) with HOP-92; 2.72 µM (inactive) in the experiment on OVCAR-3.

Consider `Cc1cc(C)c2c(=O)n(CN3CCC(C#N)(c4ccccc4)CC3)sc2n1`, for which the GI50 with SK-MEL-2 was > 100 µM (inactive); with SF-295 it was > 100 µM (inactive); in the experiment on MOLT-4 it was 49.4 µM (inactive); in the experiment on IGROV-1 it was > 100 µM (inactive); in the experiment on SR, 49.9 µM (inactive); in the experiment with SF-268, 40 µM (inactive). Also, the GI50 is 31.3 µM (inactive) with SF-539; 37.7 µM (inactive) with SNB-75; 22.5 µM (inactive) in the experiment with Malme-3M; 25.6 µM (inactive) in the experiment on TK-10; > 100 µM (inactive) with DU-145; 39.1 µM in the experiment on HCT-15. Besides, the GI50 was 50.2 µM (inactive) in the experiment on M14; 24.4 µM (inactive) in the experiment with MDA-MB-435; 40.4 µM (inactive) in the experiment on NCI-H460; 88.1 µM (inactive) with HOP-92; 30.3 µM (inactive) in the experiment with OVCAR-4; 83 µM (inactive) in the experiment with OVCAR-3.

Turning to `O=C1C[C@H]2[C@@H](O1)[C@@H](O)CN1C(=O)c3ccccc3[C@H]21`, the GI50 with SK-MEL-2, with SF-295, in the experiment with MOLT-4, in the experiment on RPMI-8226, with IGROV-1 and in the experiment with SR was > 100 µM (inactive) throughout. The GI50 with SF-268, in the experiment on SF-539, in the experiment on SNB-75, in the experiment with Malme-3M, with TK-10 and in the experiment with DU-145 was > 100 µM (inactive) throughout. Further, the GI50 is more than 100 µM in the experiment on HCT-15; > 100 µM (inactive) in the experiment on M14; > 100 µM (inactive) in the experiment on MDA-MB-435; > 100 µM (inactive) in the experiment with NCI-H460; > 100 µM (inactive) with HCC 2998; > 100 µM (inactive) in the experiment with OVCAR-4.

For the molecule `COc1cc2oc(=O)cc(C)c2cc1OC`, the GI50 in the experiment on SK-MEL-2, in the experiment on SF-295, in the experiment with MOLT-4, in the experiment on RPMI-8226, in the experiment with IGROV-1 and in the experiment with SR was > 100 µM (inactive) in each case. Also, the GI50 in the experiment on SF-268, in the experiment on SF-539, in the experiment on SNB-75, in the experiment on Malme-3M, in the experiment with TK-10 and in the experiment on DU-145 was > 100 µM (inactive) in each case. The GI50 with HCT-15 was more than 100 µM; in the experiment with M14, > 100 µM (inactive); in the experiment with MDA-MB-435, > 100 µM (inactive); in the experiment on OVCAR-4, > 100 µM (inactive); with OVCAR-3, > 100 µM (inactive).

As for `CCN(CC)/C(SCc1ccccc1)=C(\C(Cl)=C(Cl)Cl)[N+](=O)[O-]`, the GI50 in the experiment with SK-MEL-2 is 21.7 µM (inactive); in the experiment on SF-295, 36.1 µM (inactive); in the experiment with MOLT-4, 13.5 µM (inactive); with RPMI-8226 it was 14.9 µM (inactive); in the experiment with IGROV-1, 17.2 µM (inactive); in the experiment on SR, 17.8 µM (inactive). Besides, the GI50 is 18.4 µM (inactive) with SF-268; 19.7 µM (inactive) in the experiment on SF-539; 10.2 µM (inactive) in the experiment with Malme-3M; 19.2 µM (inactive) in the experiment on TK-10; 18 µM (inactive) in the experiment with DU-145; 25.5 µM in the experiment on HCT-15. For the same molecule, the GI50 in the experiment with M14 is 15.9 µM (inactive); in the experiment with MDA-MB-435, 17.7 µM (inactive); with NCI-H460, 22.3 µM (inactive); in the experiment on HCC 2998, 21.2 µM (inactive); with OVCAR-4, 15.6 µM (inactive); with OVCAR-3, 11.7 µM (inactive).

As to `O=C(O)CC/C(=N\Nc1nsc2ccccc12)c1ccc(Cl)cc1`, the GI50 was 36.5 µM (inactive) in the experiment with SK-MEL-2; 32.8 µM (inactive) in the experiment on SF-295; 21.9 µM (inactive) with MOLT-4; 11 µM (inactive) in the experiment on RPMI-8226; 30.1 µM (inactive) in the experiment with IGROV-1; 21.9 µM (inactive) with SF-268. Further, the GI50 with SF-539 is 31.5 µM (inactive); in the experiment on SNB-75, 28.5 µM (inactive); in the experiment on Malme-3M, 45 µM (inactive); in the experiment on TK-10, 46.9 µM (inactive); with DU-145, 30.3 µM (inactive); in the experiment with HCT-15, 21.1 µM. Moreover, the GI50 was 25.1 µM (inactive) in the experiment on M14; 27.5 µM (inactive) in the experiment on MDA-MB-435; 28.4 µM (inactive) with NCI-H460; 24 µM (inactive) in the experiment on HOP-92; 17.5 µM (inactive) in the experiment with HCC 2998; 20.8 µM (inactive) in the experiment on OVCAR-4. For the same molecule, the GI50 with OVCAR-3 is 18.3 µM (inactive).

For `Cc1ncc([N+](=O)[O-])n1CCNC(=O)Cn1ccnc1[N+](=O)[O-]`, the GI50 in the experiment with SK-MEL-2, in the experiment on SF-295, in the experiment with MOLT-4, in the experiment with IGROV-1, in the experiment with SR and in the experiment with SF-268 was > 100 µM (inactive) each time. For the same molecule, the GI50 is > 100 µM (inactive) in the experiment with SF-539; > 100 µM (inactive) in the experiment with SNB-75; > 100 µM (inactive) with Malme-3M; > 100 µM (inactive) in the experiment on TK-10; > 100 µM (inactive) in the experiment on DU-145; more than 100 µM in the experiment on HCT-15. The GI50 in the experiment on M14, in the experiment with MDA-MB-435, with NCI-H460, with HCC 2998 and in the experiment on OVCAR-3 was > 100 µM (inactive) in each case.

Source of the values: ChEMBL document CHEMBL1201862, “PubChem BioAssay data set” (2004).
